The values below are quoted from earlier work in US8497291B2 (Cyclacel Limited, priority 2005, dated 2013).

Like-named read-outs stand apart in the source and are kept apart here.

One data set deals with colon cancer. The note with it: model of colon cancer.
The conditions of data set [1]: phase I, patients with a variety of cancers.
The subject of data set [2] is variety of cell lines, xenograft and metastatic cancer model.

For the compound `CCCCCCCCCCCCCCCC(=O)Nc1ccn([C@@H]2O[C@H](CO)[C@@H](O)[C@@H]2C#N)c(=O)n1` [CYC682, 2′-cyano-2′-deoxy-N^4-palmitoyl-1-β-D-arabinofuranosylcytosine], in the data set with colon cancer, the anticancer activity result is given as “strong anticancer activity”, the “increasing survival compared with gemcitabine or 5-FU” value is on record as “superior” and the “preventing the spread of colon cancer metastases to the liver compared with gemcitabine or 5-FU” value was “superior”. For the same compound, in data set [1], the dose limiting toxicity entry was “myelosuppression” and the tolerability in humans entry is reported as “well tolerated”. Moreover, in data set [2] (as demonstrated in EP 536936), the anti-tumour activity entry was “excellent anti-tumour activity”. The anti-tumour activity result in data set [2] (variety of cell lines, xenograft and metastatic cancer model) is reported as “potent anti-tumour activity”.
